Reference: article PMC8205227 (ACS Infectious Diseases, 2021)
Values after ≈ are worked out from the molar mass of the structure shown. Values joined by “and” are separate entries in the source; they are usually repeats but may differ in a detail not shown here. Equal entries are not always repeated. “Also recorded” adds a separate entry of the source. Where two headings read alike, the source gives them in different places.

Legend:
[1] = molecular target: M. tuberculosis CoaBC (Mycobacterium tuberculosis, UniProt P9WNZ1); assay type: binding
[2] = system: Mtb CoaE; set-up: method as in PMID 21731728; details: 100 μM CTP; cited from earlier work
[3] = physchem; assay type: physicochemical; details: kinetic from dmso stock
From the text: (§1) Compounds were profiled for HepG2 cytotoxicity, mouse liver microsomal clearance, and aqueous solubility, as previously described.[66]

[4] = assay type: in vitro ADME, mouse; details: microsomes
From the text: as §1

[5] = molecular target: Mtb CoaB (Mycobacterium tuberculosis, UniProt P9WNZ1); experiment: BIOMOL Green end-point pyrophosphate quantification assay (high-throughput screen); assay type: biochemical
[6] = system: Mtb H37RvMA; experiment: microbe, parasite or virus in culture; assay type: cell-based, Mycobacterium tuberculosis
[7] = system: HepG2 cells; experiment: HepG2 cytotoxicity; assay type: cell-based; details: Homo sapiens
From the text: as §1

[8] = system: pyrophosphatase; experiment: Counter-screen for false positives (pyrophosphatase inactivation); assay type: biochemical
Protocol: Counter-screens carried out to exclude false positive compounds were performed in 50 μL reactions containing 0.5 U/mL pyrophosphatase and 2 μM pyrophosphate in 100 mM Tris-HCl, pH 7.6, buffer containing 1 mM MgCl2 and 1 mM TCEP for 2 h at room temperature in 384-well microplates (Greiner Bio-One). Control reactions were performed in the absence of the pyrophosphatase. The reactions were terminated by addition of 50 μL BIOMOL Green (Enzo Life Sciences), and product formation was measured by absorbance (650 nm) using a PHERAstar microplate reader (BMG Labtech) following incubation for 20 min. Liquid dispensing was performed using a Thermo Scientific Matrix Wellmate, and data were processed and analyzed using ActivityBase (IDBS).

[9] = physchem; assay type: physicochemical
From the text: Table 1 SAR and In Vitro Profiling of Modifications to Compound 1a ^a | column: CHI LogD

[10] = system: wild-type Mtb H37RvMA; experiment: LC-MS metabolomic profiling of Mtb after compound exposure; assay type: cell-based, Mycobacterium tuberculosis; details: 5 μM or 50 μM, 24 h
[11] = molecular target: human CoaB (Homo sapiens, UniProt Q9HAB8); experiment: EnzChek coupled enzyme pyrophosphate assay, human CoaB; assay type: biochemical; details: 1 μM human CoaB; read-out: IC50 against human CoaB (EnzChek assay)
[12] = molecular target: T1, Mtb CoaBC (Mycobacterium tuberculosis, UniProt P9WNZ1)
[13] = system: coaBC Tet-OFF hypomorph; experiment: microbe, parasite or virus in culture; assay type: cell-based, Mycobacterium tuberculosis; details: for MIC: read-out: MIC in the presence of PantS; for Effect of ATc-mediated coaBC silencing on susceptibility of the coaBC hypomorph (hypersensitization): increasing ATc, inhibitor up to 125 μM
[14] = molecular target: T1, Mtb CoaBC; experiment: CMP quantification assay for L-cysteine kinetics and competition; assay type: biochemical
[15] = molecular target: T1, Mtb CoaBC; experiment: biochemical
[16] = system: coupled reporter enzymes (inorganic pyrophosphatase, purine nucleoside phosphorylase); experiment: Inhibition of the coupled reporter enzymes of the EnzChek assay; assay type: biochemical; details: at 100 μM
[17] = system: CoaB; set-up: method as in PMID 33420031; details: allosteric CoaB inhibitor; cited from earlier work
[18] = system: Mtb H37RvMA; set-up: method as in PMID 33420031; details: cited from earlier work
[19] = system: coaBC hypomorph; assay type: cell-based, Mycobacterium tuberculosis; details: ATc 200 ng/mL; pantothenate 25 µg/mL
[20] = system: panC Tet-OFF hypomorph; assay type: cell-based, Mycobacterium tuberculosis; details: pantothenate 25 µg/mL
[21] = system: CC(C)(COP(=O)(O)O)[C@@H](O)C(=O)NCCC(=O)O; experiment: purified protein, by the assay type; details: other: other substrates fixed (125 μM CTP or PPA, 500 μM L-cysteine); pH 7.5
[22] = system: Nc1ccn([C@@H]2O[C@H](COP(=O)(O)OP(=O)(O)OP(=O)(O)O)[C@@H](O)[C@H]2O)c(=O)n1; experiment: purified protein, by the assay type; details: other: other substrates fixed (125 μM CTP or PPA, 500 μM L-cysteine); pH 7.5
[23] = BIOMOL Green pyrophosphate quantification assay
[24] = Mycobacterium tuberculosis, H37RV, read-out: Mtb H37Rv MIC

T1 sequence (P9WNZ1 whole entry): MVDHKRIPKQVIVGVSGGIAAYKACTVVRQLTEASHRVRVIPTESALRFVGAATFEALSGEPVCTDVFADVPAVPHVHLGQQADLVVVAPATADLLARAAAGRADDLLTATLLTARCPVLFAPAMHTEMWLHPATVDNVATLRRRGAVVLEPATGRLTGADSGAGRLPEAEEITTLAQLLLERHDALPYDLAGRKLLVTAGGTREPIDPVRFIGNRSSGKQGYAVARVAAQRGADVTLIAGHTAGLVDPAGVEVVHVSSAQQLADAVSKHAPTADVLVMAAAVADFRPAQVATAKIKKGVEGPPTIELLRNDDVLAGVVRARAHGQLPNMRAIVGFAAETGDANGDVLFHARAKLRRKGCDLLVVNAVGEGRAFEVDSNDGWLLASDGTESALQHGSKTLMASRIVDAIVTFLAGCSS
Chain of Mtb CoaB (P9WNZ1 whole entry): as above
Chain of M. tuberculosis CoaBC (P9WNZ1 whole entry): as above
Chain of human CoaB (Q9HAB8 whole entry): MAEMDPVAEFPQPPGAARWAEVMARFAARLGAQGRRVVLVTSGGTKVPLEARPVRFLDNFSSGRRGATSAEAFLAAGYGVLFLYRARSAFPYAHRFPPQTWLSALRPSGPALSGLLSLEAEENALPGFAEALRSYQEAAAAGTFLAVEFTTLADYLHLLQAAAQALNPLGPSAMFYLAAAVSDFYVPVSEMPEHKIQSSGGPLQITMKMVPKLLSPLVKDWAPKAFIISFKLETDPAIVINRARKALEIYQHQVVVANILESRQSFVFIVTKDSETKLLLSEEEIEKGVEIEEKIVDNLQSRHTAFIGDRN

Q: With `Nc1ccn([C@@H]2O[C@H](COP(=O)(O)O)[C@@H](O)[C@H]2O)c(=O)n1` [CMP, cytidine-5′-monophosphate] as the compound, how does the “Thermal shift relative to CoaBC, Substrate” value [1] read?
A: 1.5 °C

Q: What does the source list for `Nc1ccn([C@@H]2O[C@H](COP(=O)(O)OP(=O)(O)OP(=O)(O)O)[C@@H](O)[C@H]2O)c(=O)n1` [CTP, cytidine-5′-triphosphate]?
A: Thermal shift relative to CoaBC, Substrate [1]: 5.5 °C; Decrease in CoaE activity [2]: greater than 60%

Q: Which solubility kinetic [3] does the source give for `Cc1nn(-c2ccccc2)c(O)c1Sc1ccccc1` [Compound 1a, 4-Phenylsulfanyl-5-methyl-2-phenyl-pyrazol-3-ol] here?
A: 219 µM (≈ 61.8 µg/mL)

Q: What about the “Mouse Cli (intrinsic clearance)” value ([4]; mouse) of the same compound?
A: <0.5 mL/min/g

Q: What about the IC50 [5, 23] of the same compound?
A: 9.9 µM

Q: What about the MIC [6, 24] of the same compound?
A: > 125 µM

Q: What about the MIC ([6]; read-out: Mtb H37Rv MIC) of the same compound?
A: >125 µM

Q: What about the IC50 [7] of the same compound?
A: > 50 µM

Q: And the “Activity in counter-screen for pyrophosphatase inactivation” value [8]?
A: inactivity

Q: And the chromatographic logD [9]?
A: 0.4

Q: For `Cc1ccc(Sc2c(C)nn(-c3ccccc3)c2O)cc1` [Compound 1b, 4-(4-Methylphenyl)sulfanyl-5-methyl-2-phenyl-pyrazol-3-ol], which solubility kinetic [3] is on record?
A: 156 µM (≈ 46.2 µg/mL)

Q: And the “Mouse Cli (intrinsic clearance)” value ([4]; mouse)?
A: 1.1 mL/min/g

Q: What about the IC50 [5, 23] of the same compound?
A: 3.3 µM

Q: And the MIC [6, 24]?
A: > 125 µM

Q: And the IC50 [7]?
A: > 50 µM

Q: What about the chromatographic logD [9] of the same compound?
A: 0.7

Q: Which solubility kinetic [3] does the source give for `Cc1nn(-c2ccccc2)c(O)c1Sc1ccc(Cl)cc1` [Compound 1c, 4-(4-Chlorophenyl)sulfanyl-5-methyl-2-phenyl-pyrazol-3-ol] here?
A: 110 µM (≈ 34.8 µg/mL)

Q: What about the “Mouse Cli (intrinsic clearance)” value ([4]; mouse) of the same compound?
A: 2.2 mL/min/g

Q: What about the IC50 [5, 23] of the same compound?
A: 4 µM

Q: And the MIC [6, 24]?
A: > 125 µM

Q: And the IC50 [7]?
A: > 50 µM

Q: What about the chromatographic logD [9] of the same compound?
A: 0.7

Q: Which results are given for `Cc1nn(-c2ccccc2)c(O)c1Sc1ccc(Cl)cc1Cl` [Compound 1d]?
A: IC50 [5, 23]: 3.2 µM; MIC [6, 24]: > 125 µM; IC50 [7]: > 50 µM

Q: What does the source list for `COc1ccc(Sc2c(C)nn(-c3ccccc3)c2O)cc1` [Compound 1e, 4-(4-Methoxyphenyl)sulfanyl-5-methyl-2-phenyl-pyrazol-3-ol]?
A: Fold increase in potency against Mtb CoaB relative to 1a [5]: 4 fold; IC50 [5, 23]: 2.8 µM; MIC [6, 24]: > 125 µM; IC50 [7]: > 50 µM

Q: What does the source list for `Cc1nn(-c2ccccc2)c(O)c1Sc1nc2cc(Cl)ccc2o1` [Compound 1f, 4-(5-Chloro-1,3-benzoxazol-2-yl)sulfanyl-5-methyl-2-phenyl-pyrazol-3-ol]?
A: solubility kinetic [3]: 219 µM (≈ 78.4 µg/mL); ΔTm (difference in melting temperature in the presence and absence of 1f) [1]: 0 °C and 1 °C; Change in abundance of CoA thioesters propionyl-CoA, succinyl-CoA and malonyl-CoA relative to untreated bacilli [10]: notable depletion; Change in abundance of dephospho-CoA relative to untreated bacilli [10]: substantial accumulation; Change in the level of CoA [10]: no detectable change; Mouse Cli (intrinsic clearance) ([4]; mouse): 2.3 mL/min/g; IC50 [5, 23]: 15.6 µM; IC50 [11]: 23.4 µM; Mode of inhibition with respect to CTP [12]: noncompetitive inhibition; Mode of inhibition with respect to PPA [12]: uncompetitively; also recorded: uncompetitive inhibition; αKi, uncompetitive inhibition for PPA ([12]; varying PPA): 19.0 ± 0.6 µM; Effect of ATc on activity against wild-type Mtb H37RvMA [6]: no effect; Rescue from compound toxicity by PantS supplementation [6]: rescued the wild-type strain; MIC [6, 24]: 25.9 µM (≈ 9.27 µg/mL); MIC ([6]; Mycobacterium tuberculosis, H37RVMA, read-out: MIC in the presence of PantS): 83.3 µM; MIC ([6]; read-out: MIC in the presence of PantS): > 125 µM; MIC ([13]; Mycobacterium tuberculosis): 77.2 µM; Fold decrease in MIC against coaBC hypomorph ([13]; in the presence of 12.5 ng/mL ATc): ~7 fold; Effect of ATc-mediated coaBC silencing on susceptibility of the coaBC hypomorph (hypersensitization) [13]: dose-dependent hypersensitization; Fold reduction in susceptibility of coaBC hypomorph on PantS supplementation ([13]; pantethine 2.5 mg/mL): 4 fold; MIC [13]: > 125 µM; IC50 [7]: > 50 µM; Mode of inhibition with respect to L-cysteine [14]: noncompetitive inhibition; Ki ([14]; varying L-cysteine): 22.7 ± 7.6 µM; IC50 [15]: 24.3 µM; Ki [15]: 10.1 ± 1.4 µM; Activity on the coupled reporter enzymes [16]: inactive; chromatographic logD [9]: 0.8

Q: What does the source list for `Cc1nn(-c2ccc(Cl)cc2)c(O)c1Sc1ccc(Cl)cc1` [Compound 1g, 2-(4-Chlorophenyl)-4-(4-chlorophenyl)sulfanyl-5-methyl-pyrazol-3-ol]?
A: solubility kinetic [3]: 110 µM (≈ 38.6 µg/mL); Mouse Cli (intrinsic clearance) ([4]; mouse): 2.8 mL/min/g; IC50 [5, 23]: 3.5 µM; MIC [6, 24]: > 125 µM; Effect of ATc-mediated coaBC silencing on susceptibility of the coaBC hypomorph (hypersensitization) [13]: lack of hypersensitization; chromatographic logD [9]: 1.5

Q: What does the source list for `Cc1nn(-c2cccc(Cl)c2)c(O)c1Sc1ccc(Cl)cc1` [Compound 1h, 2-(3-Chlorophenyl)-4-(4-chlorophenyl)sulfanyl-5-methyl-pyrazol-3-ol]?
A: solubility kinetic [3]: 55 µM (≈ 19.3 µg/mL); Mouse Cli (intrinsic clearance) ([4]; mouse): 2.6 mL/min/g; IC50 [5, 23]: 2.3 µM; MIC [6, 24]: > 125 µM; Effect of ATc-mediated coaBC silencing on susceptibility of the coaBC hypomorph (hypersensitization) [13]: lack of hypersensitization; chromatographic logD [9]: 1.5

Q: For `Cc1nn(-c2ccc(Cl)cn2)c(O)c1Sc1ccc(Cl)cc1` [Compound 1i], which solubility kinetic [3] is on record?
A: 79 µM (≈ 27.8 µg/mL)

Q: What about the “Mouse Cli (intrinsic clearance)” value ([4]; CD1, mouse) of the same compound?
A: <0.5 mL/min/g

Q: And the IC50 [5, 23]?
A: > 50 µM

Q: What about the “Mtb CoaB IC50” value [5, 23] of the same compound?
A: complete loss of inhibitory activity

Q: What about the MIC [6, 24] of the same compound?
A: 6.2 µM (≈ 2.18 µg/mL)

Q: What about the “Effect of ATc-mediated coaBC silencing on susceptibility of the coaBC hypomorph (hypersensitization)” value (“Effect of ATc-mediated coaBC silencing” for short) [13] of the same compound?
A: lack of hypersensitization

Q: And the IC50 [7]?
A: 40 µM

Q: And the chromatographic logD [9]?
A: 3.7

Q: With `O=c1cc(-c2ccc(O)c(O)c2)oc2cc(O)c(O)cc12` [Compound 2b, reference compound] as the compound, how does the IC50 [17] read?
A: 0.08 µM

Q: What about the “Change in abundance of CoA thioesters propionyl-CoA, succinyl-CoA and malonyl-CoA relative to untreated bacilli” value [10] of the same compound?
A: notable depletion

Q: And the “Change in abundance of dephospho-CoA relative to untreated bacilli” value [10]?
A: substantial accumulation

Q: And the “Change in the level of CoA” value [10]?
A: no detectable change

Q: And the “MIC against Mtb (whole-cell activity)” value [18]?
A: > 250 µM

Q: With `N[C@@H](CS)C(=O)O` [L-cysteine] as the compound, how does the “Thermal shift relative to CoaBC, Substrate” value [1] read?
A: 0.5 °C

Q: With `CC(C)(COP(=O)(O)O)[C@@H](O)C(=O)NCCC(=O)O` [PPA, 4′-phosphopantothenate] as the compound, how does the “Thermal shift relative to CoaBC, Substrate” value [1] read?
A: 3.5 °C

Q: For `CC(C)(CO)[C@@H](O)C(=O)NCCC(=O)O` [Pan, pantothenate], which “Rescue of growth of the coaBC hypomorph” value [19] is on record?
A: unable to restore growth

Q: And the “Rescue from growth inhibitory effects of PanC deficiency” value [20]?
A: fully rescued

Q: Which “Effect of ATc-mediated coaBC silencing” value [13] does the source give for `NNC(=O)c1ccncc1` [isoniazid, reference compound] here?
A: did not render the coaBC hypomorph more susceptible

Q: For `CO[C@H]1/C=C/O[C@@]2(C)Oc3c(C)c(O)c4c(O)c(c(/C=N/N5CCN(C)CC5)c(O)c4c3C2=O)NC(=O)/C(C)=C\C=C\[C@H](C)[C@H](O)[C@@H](C)[C@@H](O)[C@@H](C)[C@H](OC(C)=O)[C@@H]1C` [rifampicin, reference compound], which “Effect of ATc-mediated coaBC silencing” value [13] is on record?
A: did not render the coaBC hypomorph more susceptible

Q: With “Mtb CoaBC (Mycobacterium tuberculosis H37Rv)” as the compound, how does the Km [21] read?
A: 45.4 ± 5.3 µM

Q: What about the Km [22] of the same compound?
A: 27.4 ± 2.6 µM
